Like-named read-outs stand apart in the source and are kept apart here.
Key:
S. aureus CECT 976 = experiment: MIC/MBC by broth microdilution, S. aureus CECT 976; type: cell-based; details: Staphylococcus aureus
Description: The minimum inhibitory concentration (MIC) and minimum bactericidal concentration (MBC) values of all QHSs were determined by the broth microdilution method, according to the approved M7-A7 (aerobes) standards of the Clinical and Laboratory Standards Institute (CLSI) guidelines. Overnight cell cultures of S. aureus, in the exponential phase of growth, were adjusted to an optical density (OD) of 0.132 ± 0.02 (λ = 600 nm). Then, a volume of 180 µL of the cell suspension was added to sterile, flat, clear-bottomed polystyrene (PS) 96-well microtiter plates (VWR—Radnor, PA, USA), already containing 20 µL of each QHS under study at concentrations ranging from 0.0625 to 64 µg/mL. In the end, the volume of each compound never exceeded 10% (v/v) of the well volume. Microtiter plates were then incubated for 24 h at 37 °C under agitation (150 rpm; INCU-Line IL 150R incubator). Absorbance measurements were performed at the beginning (t = 0 h) and end (t = 24 h) of the incubation period using a microtiter plate absorbance reader (BMG LABTECH FLUOstar Omega). Bacterial suspensions with DMSO and without QHSs were used as negative controls. […] All tests were performed with six replicates and a minimum of three independent repeats.
Plates were incubated at 37 °C for 24 h, and growth was visually inspected. […] All tests were performed in triplicate, and with a minimum of three independent repeats.

[1] = Chromatographic hydrophobicity index (CHI) by UHPLC; type: physicochemical; details: for CHI: LC/UV at pH 2.6, calculated from retention time with the calibration line; for chromatographic logP: back-calculated from CHI at pH 2.6: CHI LogP = 0.047 × CHI + 0.36 × HBC − 1.10
Description: The chromatographic hydrophobicity index (CHI) values were determined using the retention times (tR) of the samples under study and of a mixture of standard compounds on a UHPLC NEXERA SERIES LC-40 with a Luna C18 (2) column of 150 × 4.6 mm, 5 μm (Phenomenex, Torrance, CA, USA). Stock solutions of the test compounds (10 mM) were prepared in dimethyl sulfoxide (DMSO, 99.9%; Carlo Erba) and diluted in acetonitrile/water (1:1) to obtain a final concentration of 500 μM. The mobile phase A was 1.0% (v/v) aqueous acetic acid solution (pH = 2.6), and the mobile phase B was acetonitrile. The following gradient programme was applied: 1–7 min 0–100% B, 7–17 min 100% B, 17–19 min 100–0% B, 1 mL/min flow; rt, injection volume 40 μL.
A calibration line was obtained using a mixture of the following compounds: benzimidazole, theophylline, paracetamol, caffeine, colchicine, carbamazepine, indole, propiophenone, butyrophenone, valerophenone, and heptanophenone (Table S1 and Figure S50, Supplementary Materials). The experimental CHI values of the compounds tested at pH 2.6 were then converted to the logarithm of octanol/water partition coefficient (CHI LogP) values using Equation (1). CHI LogP = 0.047 × CHI + 0.36 × HBC − 1.10 (1) where HBC is the hydrogen bond donor count.

[2] = CECT976, S. aureus CECT 976, broth microdilution, 24 h, 37 °C, read-out: MIC
[3] = CECT976, S. aureus CECT 976, broth microdilution, plated on PCA, read-out: MBC

| SMILES | MIC (S. aureus CECT 976; [2]) | MBC (S. aureus CECT 976; [3]) | CHI [1] | chromatographic logP [1] | MBC (S. aureus CECT 976; CECT976) | MIC (S. aureus CECT 976; CECT976, 24 h) |
| --- | --- | --- | --- | --- | --- | --- |
| CCCCCC[P+](c1ccccc1)(c1ccccc1)c1ccccc1 [Compound 1a, Hexyltriphenylphosphonium bromide] | 8 µg/mL | > 64 µg/mL | 60.58 | 1.75 |  |  |
| CCCCCCCC[P+](c1ccccc1)(c1ccccc1)c1ccccc1 [Compound 1b, Octyltriphenylphosphonium bromide] | 2 µg/mL | 16 µg/mL | 71.06 | 2.24 |  |  |
| CCCCCCCCCC[P+](c1ccccc1)(c1ccccc1)c1ccccc1 [Compound 1c, Decyltriphenylphosphonium bromide] | 1 µg/mL | 8 µg/mL | 82.58 | 2.78 |  |  |
| CCCCCCCCCCCC[P+](c1ccccc1)(c1ccccc1)c1ccccc1 [Compound 1d, Dodecyltriphenylphosphonium bromide] |  |  | 94.50 | 3.34 | 16 µg/mL | 1 µg/mL |
| CCCCCCCCCCCCCCCC[P+](c1ccccc1)(c1ccccc1)c1ccccc1 [Compound 1f, Hexadecyltriphenylphosphonium bromide] | 2 µg/mL | 16 µg/mL | 115.5 | 4.33 |  |  |
| CCCCCCCCCCCCCCCCCC[P+](c1ccccc1)(c1ccccc1)c1ccccc1 [Compound 1g, Octadecyltriphenylphosphonium bromide] | 4 µg/mL | 64 µg/mL | 128.2 | 4.93 |  |  |
| CCCCCC[n+]1ccn(C)c1.[Br-] [Compound 2a, 3-Hexyl-1-methyl-1H-imidazol-3-ium bromide] |  |  | 29.35 | 0.279 | > 64 µg/mL | > 64 µg/mL |
| CCCCCCCC[n+]1ccn(C)c1.[Br-] [Compound 2b, 1-Methyl-3-octyl-1H-imidazol-3-ium bromide] | > 64 µg/mL | > 64 µg/mL | 42.19 | 0.883 |  |  |
| CCCCCCCCCC[n+]1ccn(C)c1.[Br-] [Compound 2c, 3-Decyl-1-methyl-1H-imidazol-3-ium bromide] | 16 µg/mL | > 64 µg/mL | 54.51 | 1.46 |  |  |
| CCCCCCCCCCCC[n+]1ccn(C)c1.[Br-] [Compound 2d, 3-Dodecyl-1-methyl-1H-imidazol-3-ium bromide] | 1 µg/mL | 16 µg/mL | 67.25 |  |  |  |
| CCCCCCCCCCCCCCCC[n+]1ccn(C)c1.[Br-] [Compound 2f, 3-Hexadecyl-1-methyl-1H-imidazol-3-ium bromide] | 4 µg/mL | 8 µg/mL | 95.91 | 3.41 |  |  |
| CCCCCCCCCCCCCCCCCC[n+]1ccn(C)c1.[Br-] [Compound 2g, 1-Methyl-3-octadecyl-1H-imidazol-3-ium bromide] | 8 µg/mL | 16 µg/mL | 109.2 | 4.03 |  |  |
| CCCCCC[n+]1ccc2ccccc2c1.[Br-] [Compound 3a, 2-Hexylisoquinolin-2-ium bromide] | > 64 µg/mL | > 64 µg/mL | 37.81 | 0.677 |  |  |
| CCCCCCCC[n+]1ccc2ccccc2c1.[Br-] [Compound 3b, 2-Octylisoquinolin-2-ium bromide] |  |  | 50.02 | 1.25 | > 64 µg/mL | 64 µg/mL |
| CCCCCCCCCC[n+]1ccc2ccccc2c1.[Br-] [Compound 3c, 2-Decylisoquinolin-2-ium bromide] | 16 µg/mL | 64 µg/mL | 61.62 | 1.8 |  |  |
| CCCCCCCCCCCC[n+]1ccc2ccccc2c1.[Br-] [Compound 3d, 2-Dodecylisoquinolin-2-ium bromide] | 2 µg/mL | 16 µg/mL | 74.48 | 2.4 |  |  |
| CCCCCCCCCCCCCCCC[n+]1ccc2ccccc2c1.[Br-] [Compound 3f, 2-Hexadecylisoquinolin-2-ium bromide] | 4 µg/mL | 8 µg/mL | 100.8 | 3.64 |  |  |
| CCCCCCCCCCCCCCCCCC[n+]1ccc2ccccc2c1 [Compound 3g] | 8 µg/mL | 16 µg/mL | 113.1 | 4.21 |  |  |

| SMILES | MIC (S. aureus CECT 976; [2]) | MBC (S. aureus CECT 976; [3]) | CHI [1] | chromatographic logP [1] | MBC (S. aureus CECT 976; CECT976) | MIC (S. aureus CECT 976; CECT976, 24 h) |
| --- | --- | --- | --- | --- | --- | --- |
| CCCCCC[n+]1ccc(C)cc1.[Br-] [Compound 4a, 1-Hexyl-4-methylpyridin-1-ium bromide] | > 64 µg/mL | > 64 µg/mL | 31.08 | 0.361 |  |  |
| CCCCCCCC[n+]1ccc(C)cc1.[Br-] [Compound 4b, 4-Methyl-1-octylpyridin-1-ium bromide] | > 64 µg/mL | > 64 µg/mL | 43.90 | 0.963 |  |  |
| CCCCCCCCCC[n+]1ccc(C)cc1.[Br-] [Compound 4c, 1-Decyl-4-methylpyridin-1-ium bromide] | 32 µg/mL | > 64 µg/mL | 55.99 | 1.53 |  |  |
| CCCCCCCCCCCC[n+]1ccc(C)cc1.[Br-] [Compound 4d, 1-Dodecyl-4-methylpyridin-1-ium bromide] | 2 µg/mL | 16 µg/mL | 68.96 | 2.14 |  |  |
| CCCCCCCCCCCCCCCC[n+]1ccc(C)cc1.[Br-] [Compound 4f, 1-Hexadecyl-4-methylpyridin-1-ium bromide] | 4 µg/mL | 8 µg/mL | 96.77 | 3.45 |  |  |
| CCCCCCCCCCCCCCCCCC[n+]1ccc(C)cc1.[Br-] [Compound 4g, 4-Methyl-1-octadecylpyridin-1-ium bromide] | 8 µg/mL | 16 µg/mL | 109.2 | 4.03 |  |  |
| CCCCCC[n+]1cccc2ccccc21.[Br-] [Compound 5a, 1-Hexylquinolin-1-ium bromide] | > 64 µg/mL | > 64 µg/mL | 36.98 | 0.638 |  |  |
| CCCCCCCC[n+]1cccc2ccccc21.[Br-] [Compound 5b, 1-Octylquinolin-1-ium bromide] | 16 µg/mL | > 64 µg/mL | 49.24 | 1.21 |  |  |
| CCCCCCCCCC[n+]1cccc2ccccc21.[Br-] [Compound 5c, 1-Decylquinolin-1-ium bromide] | 16 µg/mL | 32 µg/mL | 61.45 | 1.79 |  |  |
| CCCCCCCCCCCC[n+]1cccc2ccccc21.[Br-] [Compound 5d, 1-Dodecylquinolin-1-ium bromide] | 4 µg/mL | 16 µg/mL | 74.21 | 2.39 |  |  |
| CCCCCCCCCCCCCCCC[n+]1cccc2ccccc21.[Br-] [Compound 5f, 1-Hexadecylquinolin-1-ium bromide] | 4 µg/mL | 8 µg/mL | 101.1 | 3.65 |  |  |
| CCCCCC[N+](CC)(CC)CC.[Br-] [Compound 7a, N,N,N-Triethylhexan-1-aminium bromide] | > 64 µg/mL | > 64 µg/mL |  |  |  |  |
| CCCCCCCC[N+](CC)(CC)CC.[Br-] [Compound 7b, N,N,N-Triethyloctan-1-aminium bromide] | > 64 µg/mL | > 64 µg/mL |  |  |  |  |
| CCCCCCCCCC[N+](CC)(CC)CC.[Br-] [Compound 7c, N,N,N-Triethyldecan-1-aminium bromide] | 64 µg/mL | > 64 µg/mL |  |  |  |  |
| CCCCCCCCCCCC[N+](CC)(CC)CC.[Br-] [Compound 7d, N,N,N-Triethyldodecan-1-aminium bromide] | 4 µg/mL | 16 µg/mL |  |  |  |  |
| CCCCCCCCCCCCCCCC[N+](CC)(CC)CC.[Br-] [Compound 7f, N,N,N-Triethylhexadecan-1-aminium bromide] | 64 µg/mL | 64 µg/mL |  |  |  |  |
| CCCCCCCCCCCCCCCCCC[N+](CC)(CC)CC.[Br-] [Compound 7g, N,N,N-Triethyloctadecan-1-aminium bromide] | 16 µg/mL | 16 µg/mL |  |  |  |  |
